The results in this text go back to patent US20260041617A1, “COSMETIC COMPOSITION APPLICABLE TO THE SKIN AND BASED ON A VOLATILE MIXTURE OF ALKANES” (BIOSYNTHIS, priority 2022, published 2026).

This series is described as follows: Biodegradability by OECD 301F method (manometric respirometry test). On the procedure:
For the purposes of the present invention, the OECD 301F method makes it possible to assess the biodegradability of a substance by a manometric respirometry test.
The biodegradability of a volatile mixture of alkanes used in the cosmetic compositions applicable to the skin according to the invention was measured according to the OECD 301F method. For comparison, the degradation of isododecane (CAS 13475-82-6) was also measured with this method.
The OECD 301F method is used to characterize the ease of biodegradation of a substance by a manometric respirometry test.

On to `CC(CC(C)(C)C)CC(C)(C)C` [Isododecane (CAS 13475-82-6), 2,2,4,6,6-pentamethylheptane], for which the “Percentage of degradation according to the OECD 301F method” value turned out to be 0%. The “biodegradable according to the OECD 301F method” value (result in words) is listed as “not biodegradable”.
